Experimental data from patent US8883962B2, “Zinc-responsive peptides, and methods of use thereof” (Massachusetts Institute of Technology, priority 2012, dated 2014).
Values joined by “and” are separate entries in the source; they are usually repeats but may differ in a detail not shown here. Identical values can stand only once. Counter-ions that a name gives are not always drawn. The star is where a group is joined. ZP1 = ZinPyr-1 zinc sensor: fluorescein platform with two dipicolylamine metal-binding arms, attached via its 6-CO2H; Palmitoyl = CCCCCCCCCCCCCCCC(=O)*

What was measured:
[1] = 50 mM PIPES buffer (pH 7), 100 mM KCl; read-out: Kd-Zn (known); cited from earlier work
[2] = in 0.1 M H2SO4; cited from earlier work
[3] = Photophysical characterization (absorbance, emission, quantum yield) without and with zinc; type: physicochemical; conditions: 25 mM PIPES (pH 7), 50 mM KCl
Procedure: To investigate whether the zinc-sensing properties of the ZP1 moiety withstood the conditions of SPPS, we studied the zinc-binding and photophysical properties of Palm-ZP1 in vitro. Due to the hydrophobic palmitoyl moiety, we used a mixed solvent system consisting of 25 mM PIPES buffer (pH 7) with 50 mM KCl and 50% acetonitrile (v/v). In the absence of zinc, Palm-ZP1 has spectral features that are similar to those of other ZP1 derivatives. Apo Palm-ZP1 has a λabs=518 nm and λem=534 nm (φapo=0.16±0.05) (FIG. 24 and FIG. 29). Addition of ZnCl2 to a solution of Palm-ZP1 produced a characteristic blue-shift in absorption and emission spectra (λabs=505 nm; λem=527 nm) and an enhancement of fluorescence (φZn=0.79±0.05) (FIG. 16a).
ZQ-MPP was prepared manually using standard solid phase methodology. […] In the absence of zinc, ZQ-MPP has two main absorption bands with maxima at λabs=243 and 336 nm (FIG. 26), and is essentially non-emissive (φ≦0.002). Addition of ZnCl2 gives rise to two new features in the absorption spectrum (λabs=264 and 358 nm), and a large increase (>100-fold; φ=0.36±0.01) in fluorescence intensity (λem=484 nm, FIG. 16b, 26, and Table 30).
Spectroscopic measurements for Palm-ZP1 were carried out in a mixed solvent system consisting of 25 mM PIPES buffer (pH 7) with 50 mM KCl and 50% acetonitrile (v/v) (FIG. 24). Except where noted, all fluorescence data were obtained by exciting at 495 nm and observing from 500-650 nm, with 0.1 sec integration time and slit widths of 0.4 mm (1.6 nm). Emission spectra represent the average of three scans. The quantum yield of Palm-ZP1 was referenced to fluorescein in 0.1 M NaOH(aq), which has a known quantum yield of φ=0.95. Lakowicz, J. R. Principles of fluorescence spectroscopy; 2nd ed.; Kluwer Academic/Plenum: New York, 1999.
Characterization of ZQ-MPP (FIG. 26) was performed in 25 mM PIPES buffer (pH 7) with 50 mM KCl, and 50% (v/v) acetonitrile. Zinc affinities (Kd-Zn) were compared to TSQ under identical conditions (FIG. 27 and FIG. 30). Quantum yields for ZQ-MPP and TSQ were reference to quinine sulfate in 0.1 M H2SO4, which has a known quantum yield of (I)=0.58. Eastman, J. W. Photochem. Photobio. 1967, 6, 55.

[4] = Apparent zinc-binding affinity (Kd-Zn) by fluorescence titration in buffered zinc solution; conditions: CaEDTA buffered solution, 25 mM PIPES (pH 7), 50 mM KCl, 50% acetonitrile
Procedure: Apparent zinc-binding affinities (Kd-Zn) were determined by a modified literature procedure. Walkup, G. K.; et al. J. Am. Chem. Soc. 2000, 122, 5644. For each zinc-binding titration, 1 mM EDTA and 2 mM CaCl2 were added to the MeCN/PIPES buffered solution. Palm-ZP1 or ZP1 was added, and the system was allowed to reach equilibrium (30 min). Aliquots of ZnCl2 were successively added, and the emission spectra recorded once the emission spectrum stabilized (˜30 min). The amount of free zinc for a given concentration of total zinc was calculated using the maxchelator program (http://maxchelator.stanford.edu/webmaxc/webmaxcS.htm) based on initial values of 1 mM EDTA, 2 mM CaCl2, an ionic strength of I=0.05 mol dm^−3, and a pH of 7.0. Due to the addition of acetonitrile to the buffered solution, we compared the apparent Kd-Zn for Palm-ZP1 to ZP1 under identical conditions (FIG. 25 and FIG. 29).
Apparent zinc-binding affinities (Kd-Zn) were determined using a modified literature procedure. Fahrni, C. J.; et al. J. Am. […] Aliquots of ZnCl2 were successively added, and the emission spectra recorded once the emission spectrum stabilized (˜30 min). The amount of free zinc for a given concentration of total zinc was calculated using the maxchelator program (http://maxchelator.stanford.edu/webmaxc/webmaxcS.htm) based on initial values of 2 mM EGTA at an ionic strength of I=0.05 mol dm^−3 and a pH of 7.0. […]

HeLa cells [5] = test: Localization study in live cells by multichannel fluorescence microscopy (Pearson's correlation coefficient); type: cell-based
Procedure: We next explored whether Palm-ZP1 selective accumulates in the plasma membrane. […] Quantitative image analysis corroborated these findings: Palm-ZP1 and Cell Mask Orange strongly co-localize with a Pearson's correlation coefficient of r=0.70±0.05.
(§1) We carried out live cell imaging experiments to determine whether ZQ-MPP could target mitochondria and report on changes in zinc concentrations. HeLa cells were pretreated with a 25 μM solution of ZQ-MPP, which also contained MitoTracker Red as an internal mitochondria tracker (see later examples). […] The localization of ZQ-MPP was investigated with multichannel fluorescence microscopy. Visually, the distribution of MitoTracker Red (FIG. 19b) and ZQ-MPP (FIG. 19c) appear nearly identical. Overlaying the images (FIG. 19d) and calculating the Pearson's correlation coefficient yields an r=0.71±0.01, indicating strong colocalization.
(§2) Palm-ZP1 (10 μM) was incubated for 30 min at 37° C. and 5% CO2 in DMEM. For multichannel imaging and co-localization studies, staining of the plasma membrane was accomplished by addition of Cell Mask Orange (Life Technologies, final concentration 2.5 μg/mL) for 15-20 min. Prior to imaging, cells were rinsed with warm dye- and serum-free DMEM (2×2 mL) and bathed in warm dye- and serum-free DMEM (2 mL). […]
(§3) The imaging experiments were performed using a Zeiss Axiovert 200M inverted epifluorescence microscope equipped with an EM-CCD digital camera (Hamamatsu) and a MS200 XY Piezo Z stage (Applied Scientific Instruments). The light source was an X-Cite 120 metal-halide lamp (EXFO) and the fluorescence images were obtained using an oil-immersion objective at 63× magnification. […]
To calculate r, images were first deconvoluted using a calculated point-spread function (PSF) map based on emission wavelength, refractive index of the media (n=1.518), and the numerical aperture (1.4). Deconvoluted channels (i.e., sensor and organelle trackers) were merged and analyzed. For each image, a minimum of three regions-of-interest (ROI) were selected and the r-value calculated using an ImageJ plugin. […]

HeLa cells [6] = test: Live cell imaging of zinc-induced fluorescence turn-on; type: cell-based
Procedure: To assess the ability of Palm-ZP1 to function within a cellular environment, we conducted live cell imaging experiments. HeLa cells were incubated with a 10 μM solution of Palm-ZP1 in Dulbecco's Modified Eagle Medium (DMEM) for 30 min (37° C., 5% CO2) prior to imaging. Initial cell images had minimal ZP1 emission, consistent with the low quantum yield for the apo form of the sensor. […] Subsequent addition of 100 μM EDTA, a cell-impermeable chelator, attenuated the fluorescent signal to initial levels within 5 min, further confirming that the zinc-induced fluorescence increase occurs extracellularly.
as §1
HeLa cells were cultured at 37° C. under a 5% CO2 humidified atmosphere in Dulbecco's Modified Eagle Medium (High Glucose DMEM, Invitrogen) supplemented with 10% fetal bovine serum (FBS, HyClone), penicillin (100 μg/mL), and streptomycin (100 μg/mL). For live cell imaging, cells were seeded in 35-mm poly-D-Lys coated glass-bottom culture dishes (MatTek Corporation).
as §2, with “mL). To assess the zinc responsiveness of Palm-ZP1, stock solutions of ZnCl2 (10 mM) were diluted in warm dye- and serum-free DMEM to a final ZnCl2 concentration of 50 μM. The zinc-enriched media was exchanged in the cell culture dish directly on the microscope stage.” for “mL).”
as §3

Question: Which Kd [1] does the source give for `O=C1OC2(c3ccccc31)c1cc(Cl)c(O)c(CN(Cc3ccccn3)Cc3ccccn3)c1Oc1c2cc(Cl)c(O)c1CN(Cc1ccccn1)Cc1ccccn1` [ZP1] here?
Answer: The Kd was 700 pM.

Question: With `C=C[C@H]1C[N@@]2CC[C@H]1C[C@H]2[C@H](O)c1ccnc2ccc(OC)cc12` [quinine sulfate] as the compound, how does the “known quantum yield (reference standard)” value [2] read?
Answer: Its value is 0.58.

Question: For “Palmitic acid-PPPDDK(ZPI)-CONH2 (Palmitoyl-PPPDDK(ZP1)-NH2; not fully specified) [Palm-ZP1]”, which “quantum yield φ, absence of zinc (apo)” value ([3]; 50% acetonitrile (v/v)) is on record?
Answer: The value was 0.16±0.05.

Question: And the “quantum yield φ, zinc-bound” value ([3]; 50% acetonitrile (v/v))?
Answer: Its value is 0.79±0.05.

Question: And the “λabs after addition of ZnCl2” value ([3]; 50% acetonitrile (v/v))?
Answer: Its value is 505 nm.

Question: And the “λabs, absence of zinc (apo)” value ([3]; 50% acetonitrile (v/v))?
Answer: Its value is 518 nm.

Question: And the “λem after addition of ZnCl2” value ([3]; 50% acetonitrile (v/v))?
Answer: The value was 527 nm.

Question: What about the “λem, absence of zinc (apo)” value ([3]; 50% acetonitrile (v/v)) of the same compound?
Answer: The value was 534 nm.

Question: What about the “Kd-Zn compared with ZP1” value [4] of the same compound?
Answer: Its value is “closely approximates the Kd-Zn of ZP1”.

Question: What about the “Pearson's correlation coefficient r with Cell Mask Orange (plasma membrane)” value (HeLa cells [5]) of the same compound?
Answer: The value was 0.70±0.05.

Question: What about the localization in cells (HeLa cells [5]; multichannel fluorescence microscopy) of the same compound?
Answer: The localization in cells was “preferentially localize to the plasma membrane”.

Question: And the “increase in ZP1 fluorescence intensity at the peripheral membrane” value (HeLa cells [6]; 10 μM probe, addition of 50 μM ZnCl2, no ionophore)?
Answer: The value was ~1.7 fold.

Question: And the “time for fluorescent signal to be attenuated to initial levels” value (HeLa cells [6]; addition of 100 μM EDTA)?
Answer: Its value is ≤ 5 min.

Question: Which results are given for zinquin-FxrFxrFxr-CONH2 [ZQ-MPP]?
Answer: quantum yield φ, absence of zinc (apo) ([3]; 50% acetonitrile (v/v)): ≤ 0.002; quantum yield φ, zinc-bound ([3]; 50% acetonitrile (v/v)): 0.36±0.01; λabs after addition of ZnCl2 ([3]; 50% acetonitrile (v/v)): 264 nm and 358 nm; λabs, absence of zinc (apo) ([3]; 50% acetonitrile (v/v)): 243 nm and 336 nm; λem after addition of ZnCl2 ([3]; 50% acetonitrile (v/v)): 484 nm; increase in fluorescence intensity upon addition of ZnCl2 ([3]; in vitro, 50% acetonitrile): > 100 fold; Pearson's correlation coefficient r with MitoTracker Red (mitochondria) (HeLa cells [5]): 0.71±0.01; increase in ZQ-MPP intensity (HeLa cells [6]; 25 μM probe, addition of 50 μM zinc/pyrithione): ~15 fold; signal after addition of zinc chelator (HeLa cells [6]; addition of 100 μM TPEN): returned to near baseline levels
